What was measured:
DC-SIGN S-ECD = target: T1, DC-SIGN S-ECD (Homo sapiens, UniProt Q9NNX6); assay: SPR direct interaction assay on oriented DC-SIGN S-ECD surface; assay type: binding; conditions: SPR direct interaction, oriented tetrameric DC-SIGN ECD surface, apparent Kd; read-out: Kdapp
T1 construct: The ECD of DC-SIGN (residues 66–404) was overexpressed and purified as previously described; made in house
T1 sequence (Q9NNX6 66-404): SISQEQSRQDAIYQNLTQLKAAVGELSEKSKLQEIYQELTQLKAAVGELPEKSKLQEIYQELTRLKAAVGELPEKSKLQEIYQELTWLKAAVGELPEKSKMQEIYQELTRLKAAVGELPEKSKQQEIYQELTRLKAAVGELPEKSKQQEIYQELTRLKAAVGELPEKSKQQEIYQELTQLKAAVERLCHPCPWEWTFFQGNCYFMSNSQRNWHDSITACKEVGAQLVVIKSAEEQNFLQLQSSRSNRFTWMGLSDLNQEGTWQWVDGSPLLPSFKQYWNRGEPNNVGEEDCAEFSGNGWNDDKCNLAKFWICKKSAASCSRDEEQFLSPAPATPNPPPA
Description: (§1) The affinity of the clusters for the extracellular domain (ECD) of the DC-SIGN receptor (DC-SIGN ECD) was estimated via surface plasmon resonance (SPR) assays (Tabarani et al., [2009]). The apparent Kd was calculated in direct interaction mode using a surface functionalized in an oriented manner with DC-SIGN ECD. In this assay, tetrameric DC-SIGN ECD is attached to the surface of the sensor chip via the N-terminus of its neck oligomerization domain, thus presenting its four carbohydrate recognition domains toward the solvent, realistically mimicking the presentation of the receptor on cell surface (Porkolab et al., [2019]). For some of the low affinity ligands, in the mM range, it was not possible to determine their affinity with this assay, and therefore a competition experiment was performed providing IC50 values (Timpano et al., [2008]) (Figure 3A). […] When comparing equivalent clusters, the α1,2-di-mannoside (B series) bound with the highest affinity (Figure 3A). […] A potential explanation for this effect could be that the spacing of clusters is more important for the larger tri-mannosides.
The direct interaction experiments were executed on a T200 Biacore with a CM3 series S sensor chip. Contrary to the competition assay described above, in this test, DC-SIGN ECD used harbors a StreptagII in its N-terminus (DC-SIGN S-ECD) to allow its capture and functionalization onto the surface in an oriented manner. Flow cells were functionalized as previously described (Porkolab et al., [2019]). Briefly, after EDC/NHS activation, flow cells were functionalized with streptactin protein in a first step. Flow cell 1 was used as control, while other flow cells were, in a second round of activation, functionalized with 100 μg/mL of a DC-SIGN S-ECD up to a final density ranging between 2,500 and 3,000 RU, via tag specific capture and linkage by amine coupling chemistry simultaneously. The compounds were injected in running buffer of 25 mM Tris pH 8, 150 mM NaCl, 4 mM CaCl2, 0.05% Tween 20 onto the surface at increasing concentrations with a flow rate of 30 μL/min. The ligand titration led to the determination of an apparent Kd value. The data was analyzed in BIAcore BIAevaluation software for direct interaction 1:1 calculation assuming that the Kd will reflect the affinity of the ligands (glycoclusters) for the DC-SIGN oriented surface used as a whole.

DC-SIGN on moDC = assay: Binding of biotinylated mannoside library to moDCs by flow cytometry; assay type: cell-based, human; conditions: 10 μM biotinylated cluster, 30 min at 4°C, streptavidin staining
Description: Next, we assessed the binding of our clusters to cellular DC-SIGN using moDCs (Figure 3B, Supplementary Figure 1B). To this end, binding of the clusters a1–a6, b1–b6, c1–c6, d1–d6, and e1–e6, decorated with a biotin handle, was determined by flow cytometry. Clusters were bound to moDCs for 30 min at 4°C. By staining using fluorophore-conjugated streptavidin and washing at 4°C, the bound clusters could be quantified by flow cytometry. […] In control experiments ligand binding to DC-SIGN was inhibited using a blocking anti-DC-SIGN antibody (Supplementary Figure 1C).
Approximately 10^5 day 5 moDCs were washed and resuspended in 100 μL culture medium (pre-cooled to 4°C). 20 μg/mL AZN-D1 (anti-DC-SIGN, in house Geijtenbeek et al., [2002]) or purified mouse anti-human CD206 antibody (Clone 19.2, BD Bioscience) was added to the moDCs and pre-incubated for 45 min on ice. Subsequently, 10 μM of the biotinylated mannoside clusters or 1 μg/mL of Lewis^Y-conjugated polyacrylamide (positive control) was added, and incubated for 30 min at 4°C. Cells were then washed with pre-cooled PBS (4°C), and stained with Alexa647-labeled streptavidin (Invitrogen^TM) in PBS supplemented with 0.5% BSA and 0.02% NaN3 (PBA) for 30 min at 4°C. Upon washing in ice-cold PBA and fixation in PBS with 0.5% PFA, the fluorescence was measured by flow cytometry (CyAn™ ADP with Summit™ Software), and further analyzed using FlowJo v10.

DC-SIGN ECD = target: T2, DC-SIGN ECD (Homo sapiens, UniProt Q9NNX6); assay: SPR competition (inhibition) assay, DC-SIGN ECD on BSA-mannotriose surface; assay type: binding; conditions: DC-SIGN ECD 20 μM
T2 construct: The ECD of DC-SIGN (residues 66–404) was overexpressed and purified as previously described; made in house
T2 sequence (Q9NNX6 66-404): T1 sequence (Q9NNX6 66-404)
Description: as §1
The ECD of DC-SIGN (residues 66–404) was overexpressed and purified as previously described (Tabarani et al., [2009]). The DC-SIGN S-ECD construct used for direct interaction experiment (see below) has been overexpressed and purified as described elsewhere (Porkolab et al., [2019]). The SPR competition experiments were performed on a BIAcore T200 using a CM3 series S sensor chip. Flow cells were activated as previously described (Halary et al., [2002]). Flow cell 1 was functionalized with BSA, blocked with ethanolamine and subsequently used as a control surface. Flow cells 2 and 3 were treated with BSA-Man α1-3[Manα1-6]Man (Dextra) (60 μg/mL) in 10 mM NaOAc pH 4 and blocked with ethanolamine. The final densities on flow cells 2 and 3 were about 2,100 RU. The affinities of the various compounds for DC-SIGN ECD were evaluated via an established inhibition assay (Andreini et al., [2011]) in which DCSIGN ECD was injected at 20 μM alone or in the presence of increasing concentration of inhibitors. Injections were performed at 5 μL/min using 25 mM Tris-HCl pH 8, 150 mM NaCl, 4 mM CaCl2, 0.05% P20 surfactant as running buffer. The surface was regenerated by the injection of 50 mM EDTA. The data was analyzed in BIAcore BIAevaluation software using four parameter equation.

moDCs = assay: Internalization of biotinylated hexavalent clusters by moDCs (flow cytometry); assay type: cell-based, human
Description: For the internalization, the moDCs were incubated with clusters b6, c6, d6, and e6 for 1 h at 4°C, where after unbound ligands were washed away with ice-cold medium. Warm medium was added to the moDCs, and samples were taken at the indicated time points and put on ice. Upon staining the moDCs with fluorophore-conjugated streptavidin, we could measure the signal loss of the membrane via flow cytometry. To exclude ligand-receptor dissociation before internalization, the moDCs were fixed under gentle conditions, hereby inhibiting receptor-mediated endocytosis. On fixed moDCs the clusters remained at the surface, as no signal loss could be detected (Supplementary Figure 1D). […] The di-mannoside clusters (b6, c6, and d6) were internalized relatively fast, with a 50% uptake within 5 min (Figure 5B). The tri-mannoside cluster e6 however remained longer at the membrane surface and only a 25% uptake was seen after 30 min. Similar results were seen using a pH-sensitive fluorophore. In acidic environments, such as the endosomes and lysosomes, the fluorescence of this dye increases. Pre-complexed clusters mirrored the accelerated uptake of the di-mannoside clusters over the e6 cluster (Supplementary Figure 1E). Although the DC-SIGN mediated uptake mechanism is known (Cambi et al., [2009]), the initiation trigger for endocytosis upon DC-SIGN-ligand binding remains unclear. Recognition of the di-mannoside clusters could induce signaling leading to accelerated uptake, whereas the tri-mannoside cluster could trigger a different signaling pathway. Nonetheless, the clusters harboring the smaller mannosides are preferred. Although the binding affinity of the clusters ranged from 0.9 to 6.6 μM, the di-mannosides induce more rapid DC-SIGN internalization over the tri-mannosides, and can thus increase intracellular peptide concentrations more efficiently for further antigen processing and presentation.
Immature day 5 moDCs were harvested and washed with cold HBSS (Thermo Fischer), after which half of the moDCs were gently fixed for 20 min at RT with 1% PFA in PBS. Afterwards, 20 μM of the different biotinylated mannose-clusters in cold HBSS were added. The moDCs were incubated for 1 h on ice, and washed in cold HBSS. Subsequently, warm HBSS was added to the cells, and cells were incubated at 37°C in a shaking heating block. At the indicated time points, a sample of the cells was taken and put on ice. After the last time point, the cells were stained with Streptavidin-Alexa647 (Thermo Fisher), measured using flow cytometry (CyAn™ ADP with Summit™ Software), and further analyzed using FlowJo v10. The same procedure was used for internalization with pHrodo^TM Red Avidin (Thermo Fischer). The different biotinylated mannose-clusters were however incubated with pHrodo-Avidin (ratio 2:1) for 15 min at 37°C, prior to moDC exposure. The fluorescence upon internalization was measured using flow cytometry (BD LSRFortessa™ X-20 with FACSDiva Software), and further analyzed using FlowJo v10.

CC(=O)N[C@@H](CCCCn1cc(CO[C@H]2O[C@H](CO)[C@@H](O)[C@H](O)[C@@H]2O)nn1)C(=O)N[C@@H](CCCCn1cc(CO[C@H]2O[C@H](CO)[C@@H](O)[C@H](O)[C@@H]2O)nn1)C(=O)N[C@@H](CCCCn1cc(CO[C@H]2O[C@H](CO)[C@@H](O)[C@H](O)[C@@H]2O)nn1)C(=O)N[C@@H](CCCCn1cc(CO[C@H]2O[C@H](CO)[C@@H](O)[C@H](O)[C@@H]2O)nn1)C(=O)N[C@@H](CCCCn1cc(CO[C@H]2O[C@H](CO)[C@@H](O)[C@H](O)[C@@H]2O)nn1)C(=O)N[C@@H](CCCCn1cc(CO[C@H]2O[C@H](CO)[C@@H](O)[C@H](O)[C@@H]2O)nn1)C(=O)NCC(=O)N[C@@H](CCCCN)C(N)=O [A6]
Kd (DC-SIGN S-ECD): 7.82 ± 0.44 µM | binding to DC-SIGN on moDC (DC-SIGN on moDC): significantly higher binding

CC(=O)N[C@@H](CCCCn1cc(CO[C@H]2O[C@H](CO[C@H]3O[C@H](CO)[C@@H](O)[C@H](O)[C@@H]3O)[C@@H](O)[C@H](O)[C@@H]2O)nn1)C(=O)NCC(=O)N[C@@H](CCCCN)C(N)=O [D1]
IC50 (DC-SIGN ECD): 6960 ± 3040 µM

CC(=O)N[C@@H](CCCCn1cc(CO[C@H]2O[C@H](CO[C@H]3O[C@H](CO)[C@@H](O)[C@H](O)[C@@H]3O)[C@@H](O)[C@H](O)[C@@H]2O)nn1)C(=O)NCC(=O)N[C@@H](CCCCn1cc(CO[C@H]2O[C@H](CO[C@H]3O[C@H](CO)[C@@H](O)[C@H](O)[C@@H]3O)[C@@H](O)[C@H](O)[C@@H]2O)nn1)C(=O)NCC(=O)N[C@@H](CCCCN)C(N)=O [D2]
IC50 (DC-SIGN ECD): 410.9 ± 0.3 µM

CC(=O)N[C@@H](CCCCn1cc(CO[C@H]2O[C@H](CO[C@H]3O[C@H](CO)[C@@H](O)[C@H](O)[C@@H]3O)[C@@H](O)[C@H](O)[C@@H]2O)nn1)C(=O)N[C@@H](CCCCn1cc(CO[C@H]2O[C@H](CO[C@H]3O[C@H](CO)[C@@H](O)[C@H](O)[C@@H]3O)[C@@H](O)[C@H](O)[C@@H]2O)nn1)C(=O)N[C@@H](CCCCn1cc(CO[C@H]2O[C@H](CO[C@H]3O[C@H](CO)[C@@H](O)[C@H](O)[C@@H]3O)[C@@H](O)[C@H](O)[C@@H]2O)nn1)C(=O)N[C@@H](CCCCn1cc(CO[C@H]2O[C@H](CO[C@H]3O[C@H](CO)[C@@H](O)[C@H](O)[C@@H]3O)[C@@H](O)[C@H](O)[C@@H]2O)nn1)C(=O)N[C@@H](CCCCn1cc(CO[C@H]2O[C@H](CO[C@H]3O[C@H](CO)[C@@H](O)[C@H](O)[C@@H]3O)[C@@H](O)[C@H](O)[C@@H]2O)nn1)C(=O)N[C@@H](CCCCn1cc(CO[C@H]2O[C@H](CO[C@H]3O[C@H](CO)[C@@H](O)[C@H](O)[C@@H]3O)[C@@H](O)[C@H](O)[C@@H]2O)nn1)C(=O)NCC(=O)N[C@@H](CCCCN)C(N)=O [D6]
Kd (DC-SIGN S-ECD): 6.56 ± 1.2 µM | internalization by moDCs (loss of surface streptavidin signal) (moDCs; 20 μM cluster, live moDCs): rapidly internalized | internalization by moDCs (pHrodo-avidin fluorescence increase) (moDCs; clusters pre-complexed with pH-sensitive dye): internalized rapidly | uptake by immature moDCs (moDCs; within 5 min at 37°C, 20 μM cluster): 50% | binding to DC-SIGN on moDC (DC-SIGN on moDC): no increase in binding

CC(=O)N[C@@H](CCCCn1cc(CO[C@H]2O[C@H](CO[C@H]3O[C@H](CO)[C@@H](O)[C@H](O)[C@@H]3O)[C@@H](O)[C@H](O[C@H]3O[C@H](CO)[C@@H](O)[C@H](O)[C@@H]3O)[C@@H]2O)nn1)C(=O)NCC(=O)N[C@@H](CCCCN)C(N)=O [E1]
IC50 (DC-SIGN ECD): 1520 ± 250 µM

CC(=O)N[C@@H](CCCCn1cc(CO[C@H]2O[C@H](CO[C@H]3O[C@H](CO)[C@@H](O)[C@H](O)[C@@H]3O)[C@@H](O)[C@H](O[C@H]3O[C@H](CO)[C@@H](O)[C@H](O)[C@@H]3O)[C@@H]2O)nn1)C(=O)NCC(=O)N[C@@H](CCCCn1cc(CO[C@H]2O[C@H](CO[C@H]3O[C@H](CO)[C@@H](O)[C@H](O)[C@@H]3O)[C@@H](O)[C@H](O[C@H]3O[C@H](CO)[C@@H](O)[C@H](O)[C@@H]3O)[C@@H]2O)nn1)C(=O)NCC(=O)N[C@@H](CCCCN)C(N)=O [E2]
IC50 (DC-SIGN ECD): 306 ± 4.75 µM
